Test results: patent US9073835B2, “N-acylthiourea and N-acylurea inhibitors of the Hedgehog protein signalling pathway” (Centre National De La Recherche Scientifique, priority 2008, dated 2015)

Test system: Hedgehog protein signaling pathway
Assay: Inhibition of SAG-induced alkaline phosphatase activity (differentiation) in C3H10T1/2 cells
Format: cell-based
Settings: Mus musculus; for inhibition at 10 µM: C3H 10T1/2, 10 μM test compound, percentage of alkaline phosphatase activity induced by SAG; for IC50: C3H 10T1/2, after induction by 0.1 μM SAG
Experimental: The effect of compounds with formula (I) as claimed in the invention on inhibition of the Hedgehog protein signaling pathway was determined by analysis of differentiation in the pluripotent fibroblast cell line C3H10T1/2 after activation of this pathway in these cells using a synthetic activator: SAG.
The compounds with formula (I) to be tested were dissolved in dimethylsulfoxide to a concentration of 10 mM, then stored at a temperature of −20° C. until use.
The pluripotent fibroblast cell line C3H10T1/2 (ATCC) was cultivated under the conditions recommended by the ATCC. These cells were activated using 0.1 μM of SAG, employing the methods described by Chen et al., Proc. Natl. Acad. Sci. USA, 2002, 99, 14071 and Frank-Kamenetsky et al., J. Biol., 2002, 1, 10.
Activation with SAG provokes differentiation of the cell line and allows them to express alkaline phosphatase. It is then possible to measure the activity of the Hedgehog protein signaling pathway by measuring the alkaline phosphatase activity.
The C3H10T1/2 cells were plated onto 96-well plates at a density of […], 24 hours before addition of the test compounds in a concentration of 1 nM to 30 μM and in the presence of 0.1 μM of SAG using DMEM supplemented with 10% fetal calf serum as the culture medium. The tests were carried out in quadruplicate. The plates were then incubated for 5-6 days at a temperature of 37° C. in an atmosphere of 5% CO2. The cells were washed in a cold phosphate buffer (“Phosphate Buffer Serum”: PBS) then lysed by sonication at 4° C. in 50 μl of a solution containing 0.9% of NaCl and 0.2% of Triton X-100.
By way of comparison, the activity of a known inhibitor of the Hedgehog protein signaling pathway, CURIS 61 414, as described, for example, by Frank-Kamenetsky M. et al. (J. Biol., 2002, 1, 10), was tested under the same conditions as those used to test the various compounds with formula (I) as claimed in the invention.
The alkaline phosphatase activity measurement in the lysates obtained was then carried out using the method described by Pepinsky et al. (J. Biol. Chem., 1998, 273, 14037). After adding 100 μl of reaction buffer (200 mM Tris-HCl; pH 10.5; 0.4 M of 2-amino-2-methylpropanol and 8 mM of MgCl2) and 50 μl of substrate (4 mM of disodium p-nitrophenyl phosphate), the lysates were incubated at 37° C. for 30-60 min, then the optical density was read at a wavelength of 415 nm.

Row | SMILES | inhibition at 10 µM [%] | IC50 [µM]
1 | COc1cc(C(=O)NC(=S)Nc2cccc(NC(=O)c3ccc(Cl)cc3)c2)cc(OC)c1OC [Compound 13, N-[[[3-(4-chloro-benzoylamino)phenyl]amino]thioxomethyl]-3,4,5-methoxy-benzamide] | > 80 | 0.01 to 1
2 | COc1cc(C(=O)NC(=S)Nc2ccc(Cl)c(C(=O)Nc3ccc(Cl)cc3)c2)cc(OC)c1OC [Compound 43] | > 80 | –
3 | CCOc1cc(C(=O)NC(=S)Nc2cccc(NC(=O)c3ccccc3)c2)cc(OCC)c1OCC [Compound 23, N-[[[3-(benzoylamino)phenyl]amino]thioxomethyl]-3,4,5-ethoxy-benzamide] | > 80 | 0.01 to 1
4 | COc1cc(C(=O)NC(=S)Nc2cc(Br)cc(C(=O)Nc3ccccc3)c2)cc(OC)c1OC [Compound 41] | 20 to 80 | –
5 | COc1cc(C(=O)NC(=S)Nc2ccc(C)c(-c3nc4ccccc4[nH]3)c2)cc(OC)c1OC [Compound 56, N-(3-(1H-benzo[d]imidazol-2-yl)-4-methylphenylcarbamothioyl)-3,4,5-trimethoxybenzamide] | 20 to 80 | –
6 | O=C(NC(=O)c1ccccc1)Nc1cccc(NC(=O)c2ccccc2)c1 [Compound 50, N-[[[-3-(benzoylamino)phenyl]amino]oxomethyl]-benzamide] | > 80 | –
7 | CCOc1cc(C(=O)NC(=O)Nc2cccc(NC(=O)c3ccccc3)c2)cc(OCC)c1OCC [Compound 29, N-[[[3-(benzoylamino)phenyl]amino]oxomethyl]-3,4,5-ethoxy-benzamide] | 20 to 80 | –
8 | COc1cc(C(=O)NC(=S)Nc2cccc(NC(=O)Nc3ccccc3)c2)cc(OC)c1OC [Compound 51, 3,4,5-trimethoxy-N-(3-(3-phenylureido)phenylcarbamothioyl)-benzamide] | > 80 | 1 to 3
9 | COc1cc(C(=O)NC(=S)Nc2cccc(NC(=O)c3ccco3)c2)cc(OC)c1OC [Compound 14, N-[[[3-(2-furoylamino)phenyl]amino]thioxomethyl]-3,4,5-methoxy-benzamide] | 20 to 80 | –
10 | COc1cc(C(=O)NC(=S)Nc2cccc(-n3ccc4ccccc43)c2)cc(OC)c1OC [Compound 57, N-(3-(1H-indol-1-yl)phenylcarbamothioyl)-3,4,5-trimethoxybenzamide] | > 80 | 1 to 3
11 | COc1cc(C(=O)NC(=O)Nc2cccc(NC(=O)c3ccccc3)c2)cc2c1OCO2 [Compound 30, N-[[[3-(benzoylamino)phenyl]amino]oxomethyl]-3,4-methylenedioxy-5-methoxy-benzamide] | 5 to 20 | –
12 | COc1cc(OC)cc(C(=O)NC(=S)Nc2cccc(NC(=O)c3ccccc3)c2)c1 [Compound 18, N-[[[3-(benzoylamino)phenyl]amino]thioxomethyl]-3,5-methoxy-benzamide] | > 80 | 1 to 3
13 | COc1cc(C(=O)NC(=O)Nc2cccc(NC(=O)C(C)C)c2)cc(OC)c1OC [Compound 17] | > 80 | –
14 | COc1ccccc1C(=O)Nc1cccc(NC(=S)NC(=O)c2cc(OC)c(OC)c(OC)c2)c1 [Compound 4, N-[[[3-(2-methoxy-benzoylamino)phenyl]amino]thioxomethyl]-3,4,5-methoxy-benzamide] | > 80 | 1 to 3
15 | COc1cc(C(=O)NC(=O)Nc2ccc(Cl)c(C(=O)Nc3ccccc3)c2)cc(OC)c1OC [Compound 44] | 20 to 80 | –
16 | COc1cc(C(=O)NC(=O)Nc2ccc(Cl)c(NC(=O)c3ccc(-c4ccccc4)cc3)c2)cc(OC)c1OC [Compound 37, N-[[[4-Chloro-3-(4-phenyl-benzoylamino)phenyl]amino]oxomethyl]-3,4,5-methoxy-benzamide] | 20 to 80 | –
17 | COc1cc(C(=O)NC(=S)Nc2cccc(NC(=O)C(C)C)c2)cc(OC)c1OC [Compound 10, N-[[[3-(isopropoylcarboxylamino)phenyl]amino]thioxomethyl]-3,4,5-methoxy-benzamide] | 5 to 20 | –
18 | COc1cc(C(=O)NC(=S)Nc2cccc(NC(=O)c3ccc(-c4ccccc4)cc3)c2)cc(OC)c1OC [Compound 5, N-[[[3-(4-phenyl-benzoylamino)phenyl]amino]thioxomethyl]-3,4,5-methoxy-benzamide] | 20 to 80 | 0.01 to 1
19 | COc1cc(C(=O)NC(=S)Nc2ccc(Cl)c(C(=O)Nc3ccccc3)c2)cc(OC)c1OC [Compound 25, N-[[[4-chloro-3-(phenylamino)carbonyl]amino]thioxomethyl]-3,4,5-methoxy-benzamide] | > 80 | –
20 | COc1cc(C(=O)NC(=S)Nc2ccc(C)c(NC(=O)c3ccccc3)c2)cc(OC)c1OC [Compound 27, N-[[[4-methyl-3-(benzoylamino)phenyl]amino]thioxomethyl]-3,4,5-Methoxy-benzamide] | 20 to 80 | –
21 | COc1cc(C(=O)NC(=S)Nc2cccc(NC(=O)c3ccc4ccccc4c3)c2)cc(OC)c1OC [Compound 9, N-[[[3-(2-naphthoylamino)phenyl]amino]thioxomethyl]-3,4,5-methoxy-benzamide] | 20 to 80 | –
22 | COc1cc(C(=O)NC(=S)Nc2cccc(NC(=O)C3CCCCC3)c2)cc(OC)c1OC [Compound 8, N-[[[3-(-cyclohexylcarboxylamino)phenyl]amino]thioxomethyl]-3,4,5-methoxy-benzamide] | 20 to 80 | –
23 | COc1cc(C(=O)NC(=S)Nc2cccc(NC(=O)Nc3ccc(-c4ccccc4)cc3)c2)cc(OC)c1OC [Compound 52, N-(3-(3-biphenyl-4-ylureido)phenylcarbamothioyl)-3,4,5-trimethoxybenzamide] | > 80 | 0.01 to 1
24 | COc1ccc(C(=O)NC(=S)Nc2cccc(NC(=O)c3ccccc3)c2)c(OC)c1 [Compound 22, N-[[[3-(benzoylamino)phenyl]amino]thioxomethyl]-2,4-methoxy-benzamide] | 20 to 80 | 1 to 3
25 | COc1cc(C(=O)NC(=S)Nc2cccc(-c3cn4ccsc4n3)c2)cc(OC)c1OC [Compound 58, N-(3-(imidazo[2,1-b]thiazol-6-yl)phenylcarbamothioyl)-3,4,5-trimethoxybenzamide] | > 80 | 1 to 3
26 | COc1cc(C(=O)NC(=S)Nc2cccc(NC(=O)c3ccncc3)c2)cc(OC)c1OC [Compound 11, N-[[[3-(4-pyridocarboxylamino)phenyl]amino]thioxomethyl]-3,4,5-methoxy-benzamide] | > 80 | –
27 | COc1cc(OC)c(C(=O)NC(=O)Nc2cccc(NC(=O)c3ccccc3)c2)cc1OC [Compound 48, N-[[[-3-(benzoylamino)phenyl]amino]oxomethyl]-2,4,5-methoxy-benzamide] | 20 to 80 | 1 to 3
28 | COc1cc(C(=O)NC(=O)Nc2cccc(NC(=O)Nc3ccc(-c4ccccc4)cc3)c2)cc(OC)c1OC [Compound 59, N-(3-(3-biphenyl-4-ylureido)phenylcarbamoyl)-3,4,5-trimethoxybenzamide] | > 80 | –
29 | COc1cc(C(=O)NC(=S)Nc2cc(Cl)cc(NC(=O)c3ccccc3)c2)cc(OC)c1OC [Compound 35, N-[[[5-chloro-3-(benzoylamino)phenyl]amino]thioxomethyl]-3,4,5-methoxy-benzamide] | 20 to 80 | –
30 | COc1cc(C(=O)NC(=O)Nc2cccc(NC(=O)c3ccc(-c4ccccc4)cc3)c2)cc(OC)c1OC [Compound 7, N-[[[3-(4-phenyl-benzoylamino)phenyl]amino]oxomethyl]-3,4,5-methoxy-benzamide] | 20 to 80 | –
